From patent publication US20240010639A1, “TRIAZINE DIONE DERIVATIVE, PREPARATION METHOD THEREFOR AND APPLICATION THEREOF IN MEDICINE” (Jiangsu Hengrui Pharmaceuticals Co., Ltd., priority 2020, published 2024)
Where two headings read alike, the source gives them in different places.

Test: Toxicokinetic evaluation of 14-day repeated intragastric administration to SD rats
Assay type: in vivo
Experimental: With SD rats as test animals, the plasma concentrations of the test compounds and the concentrations of the original forms of the compounds in the administration solutions were measured by LC/MS/MS at different time points after intragastric administration. The toxicokinetic performance of the compound disclosed herein was studied in SD rats and its toxicokinetic profile was evaluated.
24 SD rats, an equal number of males and females, evenly divided into 6 groups of 4, an equal number of males and females in each group, provided by Vital River Laboratory Animal Technology Co., Ltd.
A certain amount of the compound of Example 16 was measured out, and 15% PEG400 and 85% (10% TPGS+1% HPMC K100LV) were added to prepare a pale yellow homogenous suspension.
A certain amount of compound MYK-461 was measured out, and 0.5% MC was added to prepare a colorless clear solution.
The compound of Example 16 was intragastrically administered at doses of 5 mg/kg, 15 mg/kg and 30 mg/kg, at a volume of 10 mL/kg.
Compound MYK-461 was administered at doses of 0.5 mg/kg, 1.5 mg/kg and 3 mg/kg, at a volume of 10 mL/kg.
0.2-mL blood samples were collected from the orbit 0.5 h, 1.0 h, 2.0 h, 4.0 h, 8.0 h and 24.0 h after administration on day 1, and before administration and 0.5 h, 1.0 h, 2.0 h, 4.0 h, 8.0 hi, 24.0 h after administration on day 7 and day 14, placed into EDTA-K2 anticoagulation tubes, and centrifuged at 10,000 rpm for 1 min (4° C.), and plasma was isolated within 1 h and stored at −20° C. before analysis. The blood collection to centrifugation process was performed under ice bath conditions. Two hours after administration, feeding was resumed.
Determination of plasma concentrations in SD rats after intragastric administration of different concentrations of test compounds: 20 μL of SD rat plasma at each time point post-dose was mixed with 50 μL of an internal standard solution (internal standard for the compound of Example 16: 100 ng/mL verapamil; internal standard for compound MYK-461: 100 ng(mL camptothecin) and 200 μL of acetonitrile; the mixture was vortexed for 5 min and centrifuged at 3700 rpm for 10 min, and 1 μL of the supernatant was taken for LC/MS/MS analysis.

For `Cc1ccc(F)c([C@H](C)Nc2nc(=O)n(C3CCOCC3)c(=O)[nH]2)c1` [Example 16, (S)-6-((1-(2-Fluoro-5-methylphenyl)ethyl)amino)-3-(tetrahydro-2H-pyran-4-yl)-1,3,5-triazine-2,4(1H,3H)-dione], which “accumulation after 14 days of repeated intragastric administration (in words)” value is on record?
Its value is “did not show significant accumulation”.

What about the Vd/F at 1 day (both sexes, SD, rat, plasma, po, 5 mg/kg, repeated intragastric 5 mg/kg, Day 1, read-out: Apparent volume of distribution Vz/F) of the same molecule?
Its Vd/F at 1 day is 1.27 L/kg.

And the AUC (both sexes, SD, rat, plasma, po, 5 mg/kg, repeated intragastric 5 mg/kg, Day 1, read-out: Area under curve AUC)?
The AUC was 30000 ng·h/mL.

What about the CL/F at 1 day (both sexes, SD, rat, plasma, po, 5 mg/kg, repeated intragastric 5 mg/kg, Day 1, read-out: Clearance CL/F) of the same molecule?
The CL/F at 1 day was 3.06 mL/min/kg.

What about the half-life at 1 day (both sexes, SD, rat, plasma, po, 5 mg/kg, repeated intragastric 5 mg/kg, Day 1, read-out: Half-life T1/2 (converted)) of the same molecule?
Its half-life at 1 day is 4.8 h.

What about the Cmax at 1 day (both sexes, SD, rat, plasma, po, 5 mg/kg, repeated intragastric 5 mg/kg, Day 1, read-out: Plasma concentration Cmax) of the same molecule?
The Cmax at 1 day was 5740 ng/mL.

What about the MRT at 1 day (both sexes, SD, rat, plasma, po, 5 mg/kg, repeated intragastric 5 mg/kg, Day 1, read-out: Residence time MRT) of the same molecule?
The MRT at 1 day was 5 h.

What about the Vd/F at 7 day (both sexes, SD, rat, plasma, po, 5 mg/kg, repeated intragastric 5 mg/kg, Day 7, read-out: Apparent volume of distribution Vz/F) of the same molecule?
The Vd/F at 7 day was 1.28 L/kg.

What about the AUC at 7 day (both sexes, SD, rat, plasma, po, 5 mg/kg, repeated intragastric 5 mg/kg, Day 7, read-out: Area under curve AUC) of the same molecule?
The AUC at 7 day was 28100 ng·h/mL.

What about the CL/F at 7 day (both sexes, SD, rat, plasma, po, 5 mg/kg, repeated intragastric 5 mg/kg, Day 7, read-out: Clearance CL/F) of the same molecule?
Its CL/F at 7 day is 2.99 mL/min/kg.

What about the half-life at 7 day (both sexes, SD, rat, plasma, po, 5 mg/kg, repeated intragastric 5 mg/kg, Day 7, read-out: Half-life T1/2 (converted)) of the same molecule?
Its half-life at 7 day is 4.9 h.

And the Cmax at 7 day (both sexes, SD, rat, plasma, po, 5 mg/kg, repeated intragastric 5 mg/kg, Day 7, read-out: Plasma concentration Cmax)?
The Cmax at 7 day was 4470 ng/mL.

And the MRT at 7 day (both sexes, SD, rat, plasma, po, 5 mg/kg, repeated intragastric 5 mg/kg, Day 7, read-out: Residence time MRT)?
Its MRT at 7 day is 6 h.

What about the Vd/F at 14 day (both sexes, SD, rat, plasma, po, 5 mg/kg, repeated intragastric 5 mg/kg, Day 14, read-out: Apparent volume of distribution Vz/F) of the same molecule?
Its Vd/F at 14 day is 1.24 L/kg.

What about the AUC at 14 day (both sexes, SD, rat, plasma, po, 5 mg/kg, repeated intragastric 5 mg/kg, Day 14, read-out: Area under curve AUC) of the same molecule?
Its AUC at 14 day is 29800 ng·h/mL.

What about the CL/F at 14 day (both sexes, SD, rat, plasma, po, 5 mg/kg, repeated intragastric 5 mg/kg, Day 14, read-out: Clearance CL/F) of the same molecule?
Its CL/F at 14 day is 2.8 mL/min/kg.

And the half-life at 14 day (both sexes, SD, rat, plasma, po, 5 mg/kg, repeated intragastric 5 mg/kg, Day 14, read-out: Half-life T1/2 (converted))?
Its half-life at 14 day is 5.1 h.

What about the Cmax at 14 day (both sexes, SD, rat, plasma, po, 5 mg/kg, repeated intragastric 5 mg/kg, Day 14, read-out: Plasma concentration Cmax) of the same molecule?
The Cmax at 14 day was 4860 ng/mL.

And the MRT at 14 day (both sexes, SD, rat, plasma, po, 5 mg/kg, repeated intragastric 5 mg/kg, Day 14, read-out: Residence time MRT)?
The MRT at 14 day was 6.2 h.

What about the Vd/F (both sexes, SD, rat, plasma, po, 15 mg/kg, repeated intragastric 15 mg/kg, Day 1, read-out: Apparent volume of distribution Vz/F) of the same molecule?
The Vd/F was 1.37 L/kg.

What about the AUC at 1 day (both sexes, SD, rat, plasma, po, 15 mg/kg, repeated intragastric 15 mg/kg, Day 1, read-out: Area under curve AUC) of the same molecule?
Its AUC at 1 day is 80400 ng·h/mL.

What about the CL/F (both sexes, SD, rat, plasma, po, 15 mg/kg, repeated intragastric 15 mg/kg, Day 1, read-out: Clearance CL/F) of the same molecule?
The CL/F was 3.08 mL/min/kg.

And the half-life at 1 day (both sexes, SD, rat, plasma, po, 15 mg/kg, repeated intragastric 15 mg/kg, Day 1, read-out: Half-life T1/2 (converted))?
The half-life at 1 day was 5.1 h.

And the Cmax at 1 day (both sexes, SD, rat, plasma, po, 15 mg/kg, repeated intragastric 15 mg/kg, Day 1, read-out: Plasma concentration Cmax)?
The Cmax at 1 day was 16100 ng/mL.

And the MRT at 1 day (both sexes, SD, rat, plasma, po, 15 mg/kg, repeated intragastric 15 mg/kg, Day 1, read-out: Residence time MRT)?
Its MRT at 1 day is 5.4 h.

What about the Vd/F (both sexes, SD, rat, plasma, po, 15 mg/kg, repeated intragastric 15 mg/kg, Day 7, read-out: Apparent volume of distribution Vz/F) of the same molecule?
The Vd/F was 2.13 L/kg.

And the AUC (both sexes, SD, rat, plasma, po, 15 mg/kg, repeated intragastric 15 mg/kg, Day 7, read-out: Area under curve AUC)?
Its AUC is 70900 ng·h/mL.

What about the CL/F (both sexes, SD, rat, plasma, po, 15 mg/kg, repeated intragastric 15 mg/kg, Day 7, read-out: Clearance CL/F) of the same molecule?
The CL/F was 3.58 mL/min/kg.

What about the half-life (both sexes, SD, rat, plasma, po, 15 mg/kg, repeated intragastric 15 mg/kg, Day 7, read-out: Half-life T1/2 (converted)) of the same molecule?
The half-life was 6.5 h.

And the Cmax (both sexes, SD, rat, plasma, po, 15 mg/kg, repeated intragastric 15 mg/kg, Day 7, read-out: Plasma concentration Cmax)?
Its Cmax is 16800 ng/mL.

And the MRT (both sexes, SD, rat, plasma, po, 15 mg/kg, repeated intragastric 15 mg/kg, Day 7, read-out: Residence time MRT)?
Its MRT is 6.7 h.

And the Vd/F (both sexes, SD, rat, plasma, po, 15 mg/kg, repeated intragastric 15 mg/kg, Day 14, read-out: Apparent volume of distribution Vz/F)?
Its Vd/F is 1.45 L/kg.

And the AUC (both sexes, SD, rat, plasma, po, 15 mg/kg, repeated intragastric 15 mg/kg, Day 14, read-out: Area under curve AUC)?
The AUC was 82900 ng·h/mL.

What about the CL/F (both sexes, SD, rat, plasma, po, 15 mg/kg, repeated intragastric 15 mg/kg, Day 14, read-out: Clearance CL/F) of the same molecule?
Its CL/F is 2.98 mL/min/kg.

What about the half-life (both sexes, SD, rat, plasma, po, 15 mg/kg, repeated intragastric 15 mg/kg, Day 14, read-out: Half-life T1/2 (converted)) of the same molecule?
Its half-life is 5.6 h.

And the Cmax (both sexes, SD, rat, plasma, po, 15 mg/kg, repeated intragastric 15 mg/kg, Day 14, read-out: Plasma concentration Cmax)?
Its Cmax is 14100 ng/mL.

And the MRT (both sexes, SD, rat, plasma, po, 15 mg/kg, repeated intragastric 15 mg/kg, Day 14, read-out: Residence time MRT)?
The MRT was 6.4 h.

What about the Vd/F (both sexes, SD, rat, plasma, po, 30 mg/kg, repeated intragastric 30 mg/kg, Day 1, read-out: Apparent volume of distribution Vz/F) of the same molecule?
Its Vd/F is 2.26 L/kg.

What about the AUC (both sexes, SD, rat, plasma, po, 30 mg/kg, repeated intragastric 30 mg/kg, Day 1, read-out: Area under curve AUC) of the same molecule?
Its AUC is 105000 ng·h/mL.

And the CL/F (both sexes, SD, rat, plasma, po, 30 mg/kg, repeated intragastric 30 mg/kg, Day 1, read-out: Clearance CL/F)?
The CL/F was 4.72 mL/min/kg.

And the half-life (both sexes, SD, rat, plasma, po, 30 mg/kg, repeated intragastric 30 mg/kg, Day 1, read-out: Half-life T1/2 (converted))?
The half-life was 5.6 h.

And the Cmax (both sexes, SD, rat, plasma, po, 30 mg/kg, repeated intragastric 30 mg/kg, Day 1, read-out: Plasma concentration Cmax)?
The Cmax was 18700 ng/mL.

What about the MRT (both sexes, SD, rat, plasma, po, 30 mg/kg, repeated intragastric 30 mg/kg, Day 1, read-out: Residence time MRT) of the same molecule?
The MRT was 6.4 h.

And the Vd/F (both sexes, SD, rat, plasma, po, 30 mg/kg, repeated intragastric 30 mg/kg, Day 7, read-out: Apparent volume of distribution Vz/F)?
Its Vd/F is 2.15 L/kg.

And the AUC (both sexes, SD, rat, plasma, po, 30 mg/kg, repeated intragastric 30 mg/kg, Day 7, read-out: Area under curve AUC)?
The AUC was 121000 ng·h/mL.

And the CL/F (both sexes, SD, rat, plasma, po, 30 mg/kg, repeated intragastric 30 mg/kg, Day 7, read-out: Clearance CL/F)?
The CL/F was 4.14 mL/min/kg.

What about the half-life (both sexes, SD, rat, plasma, po, 30 mg/kg, repeated intragastric 30 mg/kg, Day 7, read-out: Half-life T1/2 (converted)) of the same molecule?
Its half-life is 5.9 h.

What about the Cmax (both sexes, SD, rat, plasma, po, 30 mg/kg, repeated intragastric 30 mg/kg, Day 7, read-out: Plasma concentration Cmax) of the same molecule?
Its Cmax is 21600 ng/mL.

What about the MRT (both sexes, SD, rat, plasma, po, 30 mg/kg, repeated intragastric 30 mg/kg, Day 7, read-out: Residence time MRT) of the same molecule?
Its MRT is 6.7 h.

And the Vd/F (both sexes, SD, rat, plasma, po, 30 mg/kg, repeated intragastric 30 mg/kg, Day 14, read-out: Apparent volume of distribution Vz/F)?
Its Vd/F is 1.69 L/kg.

What about the AUC (both sexes, SD, rat, plasma, po, 30 mg/kg, repeated intragastric 30 mg/kg, Day 14, read-out: Area under curve AUC) of the same molecule?
Its AUC is 139000 ng·h/mL.

And the CL/F (both sexes, SD, rat, plasma, po, 30 mg/kg, repeated intragastric 30 mg/kg, Day 14, read-out: Clearance CL/F)?
Its CL/F is 3.52 mL/min/kg.

What about the half-life (both sexes, SD, rat, plasma, po, 30 mg/kg, repeated intragastric 30 mg/kg, Day 14, read-out: Half-life T1/2 (converted)) of the same molecule?
Its half-life is 5.6 h.

What about the Cmax (both sexes, SD, rat, plasma, po, 30 mg/kg, repeated intragastric 30 mg/kg, Day 14, read-out: Plasma concentration Cmax) of the same molecule?
The Cmax was 20000 ng/mL.

And the MRT (both sexes, SD, rat, plasma, po, 30 mg/kg, repeated intragastric 30 mg/kg, Day 14, read-out: Residence time MRT)?
The MRT was 6.9 h.
